Patent US6358885B1, “Substituted phenylheterocyclic herbicides” (Mississippi State University, priority 1992, dated 2002)

How the values were obtained:
Assay in all cases: Test B preemergence/postemergence greenhouse plant response rating 0 to 10
lambsquarters = format: in vivo, Chenopodium album; conditions: for Plant response rating (0 to 10 scale), Lambsquarter: Rate 100 g/ha; for Plant response rating, Lambsquarter: Rate 400 g/ha, 0 to 10 scale
From the text: (§1) Seeds of barley (Hordeum vulgare), barnyardgrass (Echinochloa crus-galli), bedstraw (Galium aparine), blackgrass (Alopecurus myosuroides), […] (Bromus secalinus), chickweed (Stellaria media), cocklebur (Xanthium pensylvanicum), corn (Zea mays), cotton (Gossypium hirsutum), crabgrass (Digitaria spp.), giant foxtail (Setaria faberii), lambsquarters (Chenopodium album), morningglory (Ipomoea hederacea), rape (Brassica napus), rice (Oryza sativa), sorghum (Sorghum bicolor), soybean (Glycine max), sugar beet (Beta vulgaris), velvetleaf (Abutilon theophrasti), wheat (Triticum aestivum), wild buckwheat (Polygonum convolvulus), and wild oat (Avena fatua) and purple nutsedge. (Cyperus rotundus) tubers were planted and treated preemergence with test chemicals dissolved in a non-phytotoxic solvent. At the same time, these crop and weed species were also treated with postemergence applications of test chemicals. Plants ranged in height from two to eighteen cm (one to four leaf stage) for postemergence treatments. Treated plants and controls were maintained in a greenhouse for twelve to sixteen days, after which all species were compared to controls and visually evaluated. […] A dash (-) response means no test result.

barley = format: in vivo, Hordeum vulgare; conditions: for Plant response rating (0 to 10 scale), Barley: Rate 100 g/ha; for Plant response rating, Barley: Rate 400 g/ha, 0 to 10 scale
From the text: as §1

purple nutsedge = format: in vivo, Cyperus rotundus; conditions: for Plant response rating (0 to 10 scale), Nutsedge: Rate 100 g/ha; for Plant response rating, Nutsedge: Rate 400 g/ha, 0 to 10 scale
From the text: as §1

rape = format: in vivo, Brassica napus; conditions: for Plant response rating (0 to 10 scale), Rape: Rate 100 g/ha; for Plant response rating, Rape: Rate 400 g/ha, 0 to 10 scale
From the text: as §1

sorghum = format: in vivo, Sorghum bicolor; conditions: for Plant response rating (0 to 10 scale), Sorghum: Rate 100 g/ha; for Plant response rating, Sorghum: Rate 400 g/ha, 0 to 10 scale
From the text: as §1

barnyardgrass = format: in vivo, Echinochloa crus-galli; conditions: for Plant response rating (0 to 10 scale), Barnyardgrass: Rate 100 g/ha; for Plant response rating, Barnyardgrass: Rate 400 g/ha, 0 to 10 scale
From the text: as §1

cotton = format: in vivo, Gossypium hirsutum; conditions: for Plant response rating (0 to 10 scale), Cotton: Rate 100 g/ha; for Plant response rating, Cotton: Rate 400 g/ha, 0 to 10 scale
From the text: as §1

soybean = format: in vivo, Glycine max; conditions: for Plant response rating (0 to 10 scale), Soybean: Rate 100 g/ha; for Plant response rating, Soybean: Rate 400 g/ha, 0 to 10 scale
From the text: as §1

chickweed = format: in vivo, Stellaria media; conditions: for Plant response rating (0 to 10 scale), Chickweed: Rate 100 g/ha; for Plant response rating, Chickweed: Rate 400 g/ha, 0 to 10 scale
From the text: as §1

wild buckwheat = format: in vivo, Polygonum convolvulus; conditions: for Plant response rating (0 to 10 scale), Wild buckwheat: Rate 100 g/ha; for Plant response rating, Wild buckwheat: Rate 400 g/ha, 0 to 10 scale
From the text: as §1

cocklebur = format: in vivo, Xanthium pensylvanicum; conditions: for Plant response rating (0 to 10 scale), Cocklebur: Rate 100 g/ha; for Plant response rating, Cocklebur: Rate 400 g/ha, 0 to 10 scale
From the text: as §1

wheat = format: in vivo, Triticum aestivum; conditions: for Plant response rating (0 to 10 scale), Wheat: Rate 100 g/ha; for Plant response rating, Wheat: Rate 400 g/ha, 0 to 10 scale
From the text: as §1

blackgrass = format: in vivo, Alopecurus myosuroides; conditions: for Plant response rating (0 to 10 scale), Blackgrass: Rate 100 g/ha; for Plant response rating, Blackgrass: Rate 400 g/ha, 0 to 10 scale
From the text: as §1

rice = format: in vivo, Oryza sativa; conditions: for Plant response rating (0 to 10 scale), Rice: Rate 100 g/ha; for Plant response rating, Rice: Rate 400 g/ha, 0 to 10 scale
From the text: as §1

giant foxtail = format: in vivo, Setaria faberii; conditions: for Plant response rating (0 to 10 scale), Giant foxtail: Rate 100 g/ha; for Plant response rating, Giant foxtail: Rate 400 g/ha, 0 to 10 scale
From the text: as §1

morningglory = format: in vivo, Ipomoea hederacea; conditions: for Plant response rating (0 to 10 scale), Morningglory: Rate 100 g/ha; for Plant response rating, Morningglory: Rate 400 g/ha, 0 to 10 scale
From the text: as §1

velvetleaf = format: in vivo, Abutilon theophrasti; conditions: for Plant response rating (0 to 10 scale), Velvetleaf: Rate 100 g/ha; for Plant response rating, Velvetleaf: Rate 400 g/ha, 0 to 10 scale
From the text: as §1

cheatgrass = format: in vivo, Bromus secalinus; conditions: for Plant response rating (0 to 10 scale), Cheatgrass: Rate 100 g/ha; for Plant response rating, Cheatgrass: Rate 400 g/ha, 0 to 10 scale
From the text: as §1

crabgrass = format: in vivo, Digitaria spp.; conditions: for Plant response rating (0 to 10 scale), Crabgrass: Rate 100 g/ha; for Plant response rating, Crabgrass: Rate 400 g/ha, 0 to 10 scale
From the text: as §1

corn = format: in vivo, Zea mays; conditions: for Plant response rating (0 to 10 scale), Corn: Rate 100 g/ha; for Plant response rating, Corn: Rate 400 g/ha, 0 to 10 scale
From the text: as §1

sugar beet = format: in vivo, Beta vulgaris; conditions: for Plant response rating (0 to 10 scale), Sugar beet: Rate 100 g/ha; for Plant response rating, Sugar beet: Rate 400 g/ha, 0 to 10 scale
From the text: as §1

bedstraw = format: in vivo, Galium aparine; conditions: for Plant response rating (0 to 10 scale), Bedstraw: Rate 100 g/ha; for Plant response rating, Bedstraw: Rate 400 g/ha, 0 to 10 scale
From the text: as §1

wild oat = format: in vivo, Avena fatua; conditions: for Plant response rating (0 to 10 scale), Wild oat: Rate 100 g/ha; for Plant response rating, Wild oat: Rate 400 g/ha, 0 to 10 scale
From the text: as §1

Fc1ccc(-c2nc3n(c2Br)CCCC3)c(F)c1 [Compound 7]
4: Plant response rating (0 to 10 scale), Barnyardgrass (barnyardgrass; POSTEMERGENCE) | Plant response rating, Blackgrass (blackgrass; POSTEMERGENCE) | Plant response rating, Giant foxtail (giant foxtail; PREEMERGENCE) | Plant response rating, Cheatgrass (cheatgrass; POSTEMERGENCE) | Plant response rating (0 to 10 scale), Crabgrass (crabgrass; POSTEMERGENCE) | Plant response rating, Crabgrass (crabgrass; POSTEMERGENCE) | Plant response rating, Corn (corn; POSTEMERGENCE) | Plant response rating (0 to 10 scale), Bedstraw (bedstraw; POSTEMERGENCE)
5: Plant response rating (0 to 10 scale), Rape (rape; POSTEMERGENCE) | Plant response rating (0 to 10 scale), Sorghum (sorghum; POSTEMERGENCE) | Plant response rating, Wheat (wheat; POSTEMERGENCE) | Plant response rating (0 to 10 scale), Rice (rice; POSTEMERGENCE) | Plant response rating, Rice (rice; POSTEMERGENCE) | Plant response rating (0 to 10 scale), Giant foxtail (giant foxtail; POSTEMERGENCE) | Plant response rating, Giant foxtail (giant foxtail; POSTEMERGENCE) | Plant response rating, Velvetleaf (velvetleaf; PREEMERGENCE)
8: Plant response rating (0 to 10 scale), Lambsquarter (lambsquarters; POSTEMERGENCE) | Plant response rating (0 to 10 scale), Soybean (soybean; POSTEMERGENCE) | Plant response rating, Soybean (soybean; POSTEMERGENCE) | Plant response rating, Cocklebur (cocklebur; POSTEMERGENCE) | Plant response rating (0 to 10 scale), Morningglory (morningglory; POSTEMERGENCE)
3: Plant response rating, Barley (barley; POSTEMERGENCE) | Plant response rating (0 to 10 scale), Chickweed (chickweed; POSTEMERGENCE) | Plant response rating, Chickweed (chickweed; POSTEMERGENCE) | Plant response rating, Chickweed (chickweed; PREEMERGENCE) | Plant response rating, Wild buckwheat (wild buckwheat; PREEMERGENCE) | Plant response rating (0 to 10 scale), Wheat (wheat; POSTEMERGENCE) | Plant response rating (0 to 10 scale), Blackgrass (blackgrass; POSTEMERGENCE) | Plant response rating (0 to 10 scale), Giant foxtail (giant foxtail; PREEMERGENCE) | Plant response rating (0 to 10 scale), Cheatgrass (cheatgrass; POSTEMERGENCE) | Plant response rating (0 to 10 scale), Corn (corn; POSTEMERGENCE) | Plant response rating, Wild oat (wild oat; POSTEMERGENCE)
1: Plant response rating (0 to 10 scale), Nutsedge (purple nutsedge; POSTEMERGENCE) | Plant response rating (0 to 10 scale), Barnyardgrass (barnyardgrass; PREEMERGENCE) | Plant response rating (0 to 10 scale), Velvetleaf (velvetleaf; PREEMERGENCE)
0: Plant response rating (0 to 10 scale), Lambsquarter (lambsquarters; PREEMERGENCE) | Plant response rating (0 to 10 scale), Barley (barley; PREEMERGENCE) | Plant response rating, Barley (barley; PREEMERGENCE) | Plant response rating (0 to 10 scale), Nutsedge (purple nutsedge; PREEMERGENCE) | Plant response rating (0 to 10 scale), Rape (rape; PREEMERGENCE) | Plant response rating, Rape (rape; PREEMERGENCE) | Plant response rating (0 to 10 scale), Sorghum (sorghum; PREEMERGENCE) | Plant response rating, Sorghum (sorghum; PREEMERGENCE) | Plant response rating (0 to 10 scale), Cotton (cotton; PREEMERGENCE) | Plant response rating, Cotton (cotton; PREEMERGENCE) | Plant response rating (0 to 10 scale), Soybean (soybean; PREEMERGENCE) | Plant response rating, Soybean (soybean; PREEMERGENCE) | Plant response rating (0 to 10 scale), Chickweed (chickweed; PREEMERGENCE) | Plant response rating (0 to 10 scale), Wild buckwheat (wild buckwheat; PREEMERGENCE) | Plant response rating (0 to 10 scale), Cocklebur (cocklebur; PREEMERGENCE) | Plant response rating, Cocklebur (cocklebur; PREEMERGENCE) | Plant response rating (0 to 10 scale), Wheat (wheat; PREEMERGENCE) | Plant response rating, Wheat (wheat; PREEMERGENCE) | Plant response rating (0 to 10 scale), Blackgrass (blackgrass; PREEMERGENCE) | Plant response rating (0 to 10 scale), Rice (rice; PREEMERGENCE) | Plant response rating, Rice (rice; PREEMERGENCE) | Plant response rating (0 to 10 scale), Morningglory (morningglory; PREEMERGENCE) | Plant response rating, Morningglory (morningglory; PREEMERGENCE) | Plant response rating (0 to 10 scale), Cheatgrass (cheatgrass; PREEMERGENCE) | Plant response rating, Cheatgrass (cheatgrass; PREEMERGENCE) | Plant response rating (0 to 10 scale), Corn (corn; PREEMERGENCE) | Plant response rating, Corn (corn; PREEMERGENCE) | Plant response rating (0 to 10 scale), Sugar beet (sugar beet; PREEMERGENCE) | Plant response rating, Sugar beet (sugar beet; PREEMERGENCE) | Plant response rating (0 to 10 scale), Bedstraw (bedstraw; PREEMERGENCE) | Plant response rating (0 to 10 scale), Wild oat (wild oat; PREEMERGENCE) | Plant response rating, Wild oat (wild oat; PREEMERGENCE)
2: Plant response rating (0 to 10 scale), Barley (barley; POSTEMERGENCE) | Plant response rating, Nutsedge (purple nutsedge; POSTEMERGENCE) | Plant response rating, Nutsedge (purple nutsedge; PREEMERGENCE) | Plant response rating, Barnyardgrass (barnyardgrass; PREEMERGENCE) | Plant response rating, Blackgrass (blackgrass; PREEMERGENCE) | Plant response rating (0 to 10 scale), Crabgrass (crabgrass; PREEMERGENCE) | Plant response rating, Bedstraw (bedstraw; PREEMERGENCE) | Plant response rating (0 to 10 scale), Wild oat (wild oat; POSTEMERGENCE)
9: Plant response rating, Lambsquarter (lambsquarters; POSTEMERGENCE) | Plant response rating (0 to 10 scale), Cotton (cotton; POSTEMERGENCE) | Plant response rating (0 to 10 scale), Wild buckwheat (wild buckwheat; POSTEMERGENCE) | Plant response rating, Morningglory (morningglory; POSTEMERGENCE) | Plant response rating, Velvetleaf (velvetleaf; POSTEMERGENCE) | Plant response rating (0 to 10 scale), Sugar beet (sugar beet; POSTEMERGENCE)
10: Plant response rating, Cotton (cotton; POSTEMERGENCE) | Plant response rating, Wild buckwheat (wild buckwheat; POSTEMERGENCE) | Plant response rating, Sugar beet (sugar beet; POSTEMERGENCE)
7: Plant response rating, Rape (rape; POSTEMERGENCE) | Plant response rating (0 to 10 scale), Cocklebur (cocklebur; POSTEMERGENCE) | Plant response rating (0 to 10 scale), Velvetleaf (velvetleaf; POSTEMERGENCE)
6: Plant response rating, Lambsquarter (lambsquarters; PREEMERGENCE) | Plant response rating, Sorghum (sorghum; POSTEMERGENCE) | Plant response rating, Barnyardgrass (barnyardgrass; POSTEMERGENCE) | Plant response rating, Crabgrass (crabgrass; PREEMERGENCE) | Plant response rating, Bedstraw (bedstraw; POSTEMERGENCE)
